pEC50: −log10 of the molar value. ≈ marks a conversion by molar mass, not a printed value. Like-named read-outs stand apart in the source and are kept apart here.
Key:
Solubility in FaSSIF = conditions: 23 °C, pH 6.5, fassif, thermodynamic from solid
Method in brief: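 Concentration measured by HPLC-UV after solid compound was dosed at 5 mg/mL into pH 6.5 fasted-state simulated intestinal fluid containing taurocholate and lecithin (4:1 molar) and vortexed.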

HIV-1 IIIB strain = assay: MT-4 HIV Wild Type Virus Infection Assay (IIIB Virus); assay type: cell-based; conditions: Human immunodeficiency virus 1, IIIB, MT4, 120 h, MT-4 cells acutely infected with HIV-1 IIIB, 5 day incubation, Cell-titer glo
Method in brief: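 MT-4 cells at 2×10^6 cells/ml in RPMI/10% FBS were acutely infected with HIV-1 IIIB for 1 h at 37° C, diluted 25× and added to serially diluted compounds. After 5 days at 37° C, viability read by CellTiter-Glo luminescence; EC50 from dose-response curves.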

[1] = Intestinal S9 Assay (dog GI S9); assay type: in vitro ADME; conditions: dog, 1.0 mg/mL S9 protein, TRIS pH 7.4, read-out: Dog GI S9 T½
Method: (§1) Reagents. Stock solutions of test compounds in dimethyl sulfoxide (DMSO) having a final concentration of 10 mM were prepared and used in all experiments. Sekisui XenoTech (Kansas City, KS) provided pooled intestinal S9 fractions. All other chemicals were purchased from Sigma-Aldrich (St. Louis, MO) or VWR (West Chester, PA). Internal Standard/Quench (IS/Q) used to stop reactions was 100 nM labetalol in (by volume) formic acid (1%) and acetonitrile (99%).
(§2) Intestinal S9 Assay: For each test compound, an aliquot of the test compound was added to S9 stock diluted with TRIS buffer (100 mM TRIS, 1 mM ZnCl2, 1 mM MgCl2), pH 7.4, to obtain an incubation protein concentration of 1.0 mg/mL. The incubation was initiated by the addition of the substrate to the S9 reaction mixture to a final concentration of 2 μM. At 0, 10, 20, 30, 60 and 120 min, 25 μL aliquots of the reaction mixture were transferred to plates containing 225 μl of IS/Q solution. After quenching, the plates were centrifuged at 3000×g for 30 minutes. 150 μL aliquots of each supernatant were transferred to new plates and 150 μL water was added. Aliquots (10 μL) of the prepared samples were analyzed on a Thermo Q-Exactive mass spectrometer as described below.
(§3) Liquid Chromatography-Mass Spectrometry: Quantification of test compounds and control substrate was performed by analyte/internal standard peak area ratio (PAR) values measured on a Thermo Q-Exactive mass spectrometer coupled to a Dionex UltiMate 3000 HPLC with a Leap Technologies HTC PAL autosampler. The column used for analysis was a Thermo Scientific Hypersil GOLD (1.9 μm particle size, 50×2.1 mm). Mobile phase A consisted of 0.1% (v/v) formic acid in water. Mobile phase B consisted of 0.1% (v/v) formic acid in acetonitrile. Elution of analytes was achieved by a series of linear gradients varying the proportions of A and B. The mass spectrometer was calibrated on a weekly basis and mass tolerance of 5 ppm was used.
(§4) Data Analysis. Metabolic stabilities were determined by measuring the rates of disappearance of test compound and positive control substrate. Data (% of substrate remaining) were plotted on a semi-log scale and fitted using an exponential decline model:
(§5) where • Ct% of substrate remaining at time=t • C0% of substrate remaining at time=0 • t time • T½ half-life • The Half-life (T½) is determined by the following equation:
(§6) [formula] • Assuming a first-order reaction, the slope (k) is extrapolated from the aforementioned plotted data.

[2] = Intestinal S9 Assay (human GI S9); assay type: in vitro ADME; conditions: 1.0 mg/mL S9 protein; for half-life at 2 μM: human, TRIS pH 7.4, read-out: Human GI S9 T½
Method: as §1, §2, §3, §4, §5, §6

[3] = biological target: bovine intestinal alkaline phosphatase (Bos taurus (Bovine), UniProt P19111); assay: BiALP: conversion by bovine intestinal alkaline phosphatase; assay type: in vitro ADME; conditions: 2 μM substrate, 100 ng/mL iALP, Tris pH 7.8, 37° C., 60 minutes
Method in brief: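 LC-MS (positive mode) quantified analyte/internal-standard peak area ratios, referenced to 2 μM parent product. This followed a 60 min, 37° C reaction of 2 μM substrate in Tris buffer pH 7.8 (1 mM MgCl2, 1 mM ZnCl2) containing 100 ng/mL iALP or buffer alone, run in triplicate.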

PBS Stability Assay = assay type: physicochemical; conditions: buffer, pH 7.4, 2 μM, phosphate buffered saline pH 7.4; read-out: PBS T½
Method in brief: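 Half-life derives from first-order exponential decline of % compound remaining, quantified by LC-MS analyte/internal-standard peak-area ratio. Compound (2 μM final) sat in pH 7.4 phosphate-buffered saline, with aliquots quenched into acidified acetonitrile containing labetalol from 0 to 120 min.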

Sequence of bovine intestinal alkaline phosphatase (P19111 20-506): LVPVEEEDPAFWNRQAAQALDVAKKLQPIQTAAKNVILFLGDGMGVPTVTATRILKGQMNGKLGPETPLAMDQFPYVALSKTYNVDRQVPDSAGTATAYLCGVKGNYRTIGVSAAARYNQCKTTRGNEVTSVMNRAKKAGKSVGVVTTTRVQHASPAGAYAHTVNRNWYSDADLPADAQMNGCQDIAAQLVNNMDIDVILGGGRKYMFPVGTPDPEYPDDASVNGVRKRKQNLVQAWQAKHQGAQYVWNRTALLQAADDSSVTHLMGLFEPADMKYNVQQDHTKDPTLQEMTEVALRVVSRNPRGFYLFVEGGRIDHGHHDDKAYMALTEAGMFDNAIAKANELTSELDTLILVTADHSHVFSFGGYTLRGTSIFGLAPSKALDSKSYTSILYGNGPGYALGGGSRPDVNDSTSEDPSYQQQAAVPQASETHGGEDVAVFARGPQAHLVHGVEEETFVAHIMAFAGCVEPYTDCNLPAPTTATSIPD

| Compound | solubility at 2 h (Solubility in FaSSIF) [µg/mL] | pEC50 (HIV-1 IIIB strain) | half-life at 2 μM [1] [min] | half-life at 2 μM [2] [min] | [Compound] [3] [nM] | half-life at 2 μM (PBS Stability Assay) [min] | pEC50 (HIV-1 IIIB strain; read-out: EC50) | Human GI S9 T½ ([2]; 2 μM, TRIS pH 7.4) [min] |
| --- | --- | --- | --- | --- | --- | --- | --- | --- |
| COC(=O)N[C@H](C(=O)N[C@@H](Cc1ccc(C#Cc2cnc(N3CC4CCC(C3)N4C3COC3)nc2)cc1)[C@H](CN(Cc1c(F)cc(-c2ccn(C(F)F)n2)cc1F)NC(=O)[C@@H](NC(=O)OC)C(C)(C)C(F)(F)F)OC(=O)CC(C)(C)c1c(CC(=O)N2CC[C@@H](C(=O)O)C2)cc(C)cc1OP(=O)(O)O)C(C)(C)C(F)(F)F [Example 112] | 3790 (≈ 2400 µM) | 6.65 | 363 | 573 | 1708.7 | 392 |  |  |
| COC(=O)N[C@H](C(=O)N[C@@H](Cc1ccc(C#Cc2cnc(N3CC4CCC(C3)N4C3COC3)nc2)cc1)[C@H](CN(Cc1c(F)cc(-c2ccn(C(F)F)n2)cc1F)NC(=O)[C@@H](NC(=O)OC)C(C)(C)C(F)(F)F)OC(=O)CC(C)(C)c1c(CC(=O)N[C@@H](Cc2ccc(C(=O)O)cc2)C(=O)O)cc(C)cc1OP(=O)(O)O)C(C)(C)C(F)(F)F [Example 45] | 4300 (≈ 2570 µM) | 6.68 | 59.6 | 374 | 1787.4 | 284 |  |  |
| COC(=O)N[C@H](C(=O)N[C@@H](Cc1ccc(C#Cc2cnc(N3CC4CCC(C3)N4C3COC3)nc2)cc1)[C@H](CN(Cc1c(F)cc(-c2ccn(C(F)F)n2)cc1F)NC(=O)[C@@H](NC(=O)OC)C(C)(C)C(F)(F)F)OC(=O)CC(C)(C)c1c(CC(=O)NCC(=O)O)cc(C)cc1OP(=O)(O)O)C(C)(C)C(F)(F)F [Example 74] | 3340 (≈ 2160 µM) | 6.71 | 62 | 236 | 2044.2 | 692 |  |  |
| COC(=O)N[C@H](C(=O)N[C@@H](Cc1ccc(C#Cc2cnc(N3CC4CCC(C3)N4C3COC3)nc2)cc1)[C@H](CN(Cc1c(F)cc(-c2ccn(C(F)F)n2)cc1F)NC(=O)[C@@H](NC(=O)OC)C(C)(C)C(F)(F)F)OC(=O)CC(C)(C)c1c(CC(=O)N[C@]2(C(=O)O)CCOC2)cc(C)cc1OP(=O)(O)O)C(C)(C)C(F)(F)F [Example 30] | 5370 (≈ 3360 µM) | 6.71 | 70.3 | 247 | 1521.8 | 514 |  |  |
| COC(=O)N[C@H](C(=O)N[C@@H](Cc1ccc(C#Cc2cnc(N3CC4CCC(C3)N4C3COC3)nc2)cc1)[C@H](CN(Cc1c(F)cc(-c2ccn(C(F)F)n2)cc1F)NC(=O)[C@@H](NC(=O)OC)C(C)(C)C(F)(F)F)OC(=O)CC(C)(C)c1c(CC(=O)NCc2cccc(C(=O)O)c2)cc(C)cc1OP(=O)(O)O)C(C)(C)C(F)(F)F [Example 53] | < 1000 | 6.95 | 145 | 204 | 2028.9 | 585 |  |  |
| COC(=O)N[C@H](C(=O)N[C@@H](Cc1ccc(C#Cc2cnc(N3CC4CCC(C3)N4C3COC3)nc2)cc1)[C@H](CN(Cc1c(F)cc(-c2ccn(C(F)F)n2)cc1F)NC(=O)[C@@H](NC(=O)OC)C(C)(C)C(F)(F)F)OC(=O)CC(C)(C)c1c(CC(=O)Nc2ccc(/C=C/C(=O)O)cc2)cc(C)cc1OP(=O)(O)O)C(C)(C)C(F)(F)F [Example 52] | < 1000 | 7.17 | 155 | 304 | 2131.6 | 355 |  |  |
| COC(=O)N[C@H](C(=O)N[C@@H](Cc1ccc(C#Cc2cnc(N3CC4CCC(C3)N4C3COC3)nc2)cc1)[C@H](CN(Cc1c(F)cc(-c2ccn(C(F)F)n2)cc1F)NC(=O)[C@@H](NC(=O)OC)C(C)(C)C(F)(F)F)OC(=O)CC(C)(C)c1c(CC(=O)N[C@@H](CS(=O)(=O)O)C(=O)O)cc(C)cc1OP(=O)(O)O)C(C)(C)C(F)(F)F [Example 32] | 3400 (≈ 2080 µM) | 6.86 | 60.1 | 232 |  | 311 |  |  |
| COC(=O)N[C@H](C(=O)N[C@@H](Cc1ccc(C#Cc2cnc(N3CC4CCC(C3)N4C3COC3)nc2)cc1)[C@H](CN(Cc1c(F)cc(-c2ccn(C(F)F)n2)cc1F)NC(=O)[C@@H](NC(=O)OC)C(C)(C)C(F)(F)F)OC(=O)CC(C)(C)c1c(C)cc(C(=O)O)cc1OP(=O)(O)O)C(C)(C)C(F)(F)F [Example 3, 4-((5S,10S)-8-(4-(1-(difluoromethyl)-1H-pyrazol-3-yl)-2,6-difluorobenzyl)-14-methyl-10-((1S)-2-(4-((2-(8-(oxetan-3-yl)-3,8-diazabicyclo[3.2.1]octan-3-yl)pyrimidin-5-yl)ethynyl)phenyl)-1-((S)-4,4,4-trifluoro-2-((methoxycarbonyl)amino)-3,3-dimethylbutanamido)ethyl)-3,6,12-trioxo-5-(1,1,1-trifluoro-2-methylpropan-2-yl)-2,11-dioxa-4,7,8-triazapentadecan-14-yl)-3-methyl-5-(phosphonooxy)benzoic acid] |  |  | 41.1 | 119 | 1197.7 | 252 | 7.02 |  |
| COC(=O)N[C@H](C(=O)N[C@@H](Cc1ccc(C#Cc2cnc(N3CC4CCC(C3)N4C3COC3)nc2)cc1)[C@H](CN(Cc1c(F)cc(-c2ccn(C(F)F)n2)cc1F)NC(=O)[C@@H](NC(=O)OC)C(C)(C)C(F)(F)F)OC(=O)CC(C)(C)c1c(CC(=O)Nc2cccc(S(=O)(=O)O)c2)cc(C)cc1OP(=O)(O)O)C(C)(C)C(F)(F)F [Example 105] |  | 6.66 | 291 | 558 | 1626.1 | 331 |  |  |
| COC(=O)N[C@H](C(=O)N[C@@H](Cc1ccc(C#Cc2cnc(N3CC4CCC(C3)N4C3COC3)nc2)cc1)[C@H](CN(Cc1c(F)cc(-c2ccn(C(F)F)n2)cc1F)NC(=O)[C@@H](NC(=O)OC)C(C)(C)C(F)(F)F)OC(=O)CC(C)(C)c1c(CC(=O)N2C[C@@H](O)C[C@H]2C(=O)O)cc(C)cc1OP(=O)(O)O)C(C)(C)C(F)(F)F [Example 56] | 2400 (≈ 1500 µM) | 6.59 | 413 |  | 1576.7 |  |  | 789 |
| COC(=O)N[C@H](C(=O)N[C@@H](Cc1ccc(C#Cc2cnc(N3CC4CCC(C3)N4C3COC3)nc2)cc1)[C@H](CN(Cc1c(F)cc(-c2ccn(C(F)F)n2)cc1F)NC(=O)[C@@H](NC(=O)OC)C(C)(C)C(F)(F)F)OC(=O)CC(C)(C)c1c(CC(=O)N2C[C@H](O)C[C@H]2C(=O)O)cc(C)cc1OP(=O)(O)O)C(C)(C)C(F)(F)F [Example 58] | 4460 (≈ 2800 µM) | 6.43 | 434 | 727 | 1573.2 |  |  |  |

— patent US20250051375A1, “ANTI-HIV COMPOUNDS” (Gilead Sciences, Inc., priority 2023, published 2025)
